Entries after “also recorded” stand apart in the source; their conditions may differ.
System: bleomycin (BLM)-induced lung fibrosis
Experiment: Treatment model of bleomycin (BLM)-induced lung fibrosis
Assay type: in vivo, mice
Conditions: for interstitial fibronectin / lung histology: daily intraperitoneal 0.5 mg/kg from day 14, day 28; for BLM induction of profibrotic genes (collagen 1, connective tissue growth factor, fibronectin), qPCR of lung tissue / total collagen production induced by bleomycin (hydroxyproline content): daily intraperitoneal from day 14, day 28; for peripheral blood oxygen saturation (SpO2) / gas exchange: 2-week treatment interval from day 14
Procedure: FIGS. 5A-D. Bleomycin (BLM)-induced lung remodeling is attenuated by TAT-SH3-2. (A) Hematoxylin and Eosin (H&E), Masson's Trichrome (MT), or fibronectin (anti-fibronectin and Hematoxylin) staining of representative paraffin-embedded lung sections from Control (saline treated) or mice challenged with BLM for 28 days and treated daily with 0.5 mg/kg TAT-SH3-2 or TAT-SH3-2M beginning 14 days following initial BLM insult (×8). (B) qPCR of the indicated genes (Col1, collagen 1; CTGF, connective tissue growth factor; FN, fibronectin) in murine lung tissue harvested on day 28 from mice challenged with BLM (+) or saline (−) and treated daily with vehicle (−; methocel/saline) or the indicated amount (μg) of TAT-SH3-2 or TAT-SH3-2M as in (A). Data reflect mean+/−sd of n=4. (C) Mice were treated with saline or BLM as in (A) and on day 14 administered daily vehicle (−) or the indicated concentration of TAT peptide. Animals were sacrificed on day 28, and hydroxyproline content was determined as described herein. Data reflect mean+/−sd of n=3. *P<0.005, **P<0.002. (D) Mice were treated as in (C), and qPCR of the indicated genes (Col Iα1 (collagen Iα1); CTGF (connective tissue growth factor); and FN (fibronectin)) were assessed in lung tissue harvested on day 28. Data reflect mean+/−sd of n=5. *P<0.005, **P<0.001.
Time-dependent fluctuation of oxygen saturation (SpO2) levels (determined on room air) in mice challenged with BLM (or saline) for 28 days and treated 1×/day with vehicle (methocel/saline), 0.5 mg/kg of TAT-SH3-2 or TAT-SH3-2M beginning 14 days after initial BLM insult. Error bars reflect SEM from n=4. (B) Time-dependent fluctuation of oxygen saturation (SpO2) levels (determined on room air) in mice challenged with BLM (or saline) for 28 days and treated 1×/day with vehicle (methocel/saline) or the indicated concentration of TAT-SH3-2 or TAT-SH3-2M beginning 14 days after initial BLM insult. Error bars reflect mean+/−sd from n=5. *P<0.05, **P<0.01.
Female 18-20 g C57 black mice (Charles River Laboratories) were administered bleomycin (BLM; 0.075 U diluted in 50 μL 0.9% normal saline) or 50 μL 0.9% normal saline alone by tracheal instillation using an intratracheal aerosolized (Penn-century, Wyndmoor, Pa.) as described elsewhere (Andrianifahanana et al., FASEB J., 27(11):4444-54 (2013)). At this time, animals were shaved around the collar region to allow monitoring of dissolved oxygen levels (every 3rd day) on room air using a MouseOX collar clip monitoring system (Starr Life Science Corp. Oakmont, Pa.). TAT-SNX9(SH3) fusion polypeptides were solubilized with DMSO and prepared by thoroughly blending with Methocel (Sigma, Louis, Mo.) at a ratio of 1:7. Mice were treated daily by intraperitoneal injection (100 μL) of a TAT-SNX9(SH3) fusion polypeptide or an equal volume of methocel/saline beginning on day 14. On day 28, mice were euthanized, lungs were dissected, and samples were prepared for immunohistochemistry and other analyses as described elsewhere (Andrianifahanana et al., FASEB J., 27(11):4444-54 (2013); Daniels et al., J. Clin. Invest., 114:1308-16 (2004); and Wang et al., FASEB J., 19:1-11 (2005)).
The Hydroxyproline Assay Kit from Sigma (St. Louis, Mo.) was used to assess total lung collagen levels. Briefly, following sacrifice lung tissue was washed in PBS, and 30 mg homogenized in 300 μL water. One hundred μL samples were hydrolyzed in 12 M HCl, and duplicate 50 μL samples were analyzed according to the manufacturer's recommendations.

With “TAT-SH3-2: TAT-SNX9(SH3) fusion polypeptide having SNX9 amino acids 21-51 (31 mer) (TVNEGEIITITNPDVGGGWLEGRNIKGERGL; left off: small tags and cut ends)” the BLM-induced lung remodeling (FIG. 5 title) was “attenuated”, the “loss of lung function (SpO2)” value (animals receiving the highest concentration, FIG. 6B) was “no additional loss of lung function” and the interstitial fibronectin was “reduced interstitial fibronectin to essentially basal levels”. For the same substance, the lung histology was “improved lung histology”, the “BLM induction of profibrotic genes (collagen 1, connective tissue growth factor, fibronectin), qPCR of lung tissue” value was “significantly reduced” and the “total collagen production induced by bleomycin (hydroxyproline content)” value was “dose-dependent dimunization in total collagen production”. For the same substance, the “peripheral blood oxygen saturation (SpO2) / gas exchange” value (room air) was “stabilized and/or improved gas exchange; also recorded: dose-dependent improvement in gas exchange” and the “peripheral blood oxygen saturation (SpO2) / gas exchange” value (room air, listed as TAT-SH-2) was “stabilizes lung gas exchange”.

In the case of “TAT-SH3-2M: TAT-SH3-2 with G to V point mutations at amino acids 36-38; inactive TAT-SNX9 peptide unable to bind pSmad3 (TVNEGEIITITNPDVVVVWLEGRNIKGERGL; left off: small tags and cut ends)”, the interstitial fibronectin is reported as “ineffective”, the lung histology is reported as “ineffective” and the “BLM induction of profibrotic genes (collagen 1, connective tissue growth factor, fibronectin), qPCR of lung tissue” value is reported as “but not TAT-SH3-2M, significantly reduced”. The “total collagen production induced by bleomycin (hydroxyproline content)” value was “ineffective”, the “peripheral blood oxygen saturation (SpO2) / gas exchange” value (room air) was “analogous decline in SpO2” and the “decrease in SpO2 during the treatment regime” value (room air, FIG. 6B) was about 25%.

Source: US10144929B2, “Polypeptide inhibitors of Smad3 polypeptide activities” (Mayo Foundation for Medical Education and Research, priority 2016, dated 2018)
